Measurements as given in patent publication US20060142312A1, “C6-aryl and heteroaryl substituted pyrido[2,3-D] pyrimidin-7-ones” (PFIZER INC, priority 2004, published 2006).

Test system: not given
Conditions: not given
For Cc1c(C(O)c2ccccc2)c(=O)n(C2CCCC2)c2nc(Nc3ccc(N4CCNCC4)cc3)ncc12 (stereo not shown) [Example 31, 8-Cyclopentyl-6-(hydroxy-phenyl-methyl)-5-methyl-2-(4-piperazin-1-yl-phenylamino)-8H-pyrido[2,3-d]pyrimidin-7-one], the melting point was 185 °C (dec.).
In the case of CN(C)C1CCC(Nc2ncc3cc(Cc4ccccc4)c(=O)n(C4CCCC4)c3n2)CC1 (stereo not shown) [Example 40, 6-Benzyl-8-cyclopentyl-2-(4-dimethylamino-cyclohexylamino)-8H-pyrido[2,3-d]pyrimidin-7-one], the melting point is reported as 167 to 170 °C.
For Cc1ccc(Cc2cc3cnc(NCCCN4CCOCC4)nc3n(C3CCCC3)c2=O)cc1 [Example 76, 8-Cyclopentyl-6-(4-methyl-benzyl)-2-(3-morpholin-4-yl-propylamino)-8H-pyrido[2,3-d]pyrimidin-7-one], the melting point was 114 to 116 °C.
In the case of CC(C)S(=O)(=O)N1CCC(Nc2ncc3cc(Cc4ccccn4)c(=O)n(C4CCCC4)c3n2)CC1 [Example 35, 8-Cyclopentyl-2-[1-(propane-2-sulfonyl)-piperidin-4-ylamino]-6-pyridin-2-ylmethyl-8H-pyrido[2,3-d]pyrimidin-7-one], the melting point is reported as 216 to 219 °C.
With CCCN1CCC(Nc2ncc3cc(Cc4ccc(CC)cc4)c(=O)n(C4CCCC4)c3n2)CC1 [Example 62, 8-Cyclopentyl-6-(4-ethyl-benzyl)-2-(1-propyl-piperidin-4-ylamino)-8H-pyrido[2,3-d]pyrimidin-one] the melting point was 151 to 153 °C.
In the case of Cc1ccccc1Cc1cc2cnc(NC3CCC(N(C)C)CC3)nc2n(C2CCCC2)c1=O (stereo not shown) [Example 64, 8-Cyclopentyl-2-(4-dimethylamino-cyclohexylamino)-6-(2-methyl-benzyl)-8H-pyrido[2,3-d]pyrimidin-7-one], the melting point is reported as 178 to 183 °C.
O=c1c(Cc2ccccc2)cc2cnc(NC3CCNCC3)nc2n1C1CCCC1 [Example 46, 6-Benzyl-8-cyclopentyl-2-(piperidin-4-ylamino)-8H-pyrido[2,3-d]pyrimidin-7-one] showed a melting point of 75 °C.
Work on Cc1ccc(Cc2cc3cnc(NCCN4CCOCC4)nc3n(C3CCCC3)c2=O)cc1 [Example 75, 8-Cyclopentyl-6-(4-methyl-benzyl)-2-(2-morpholin-4-yl-ethylamino)-8H-pyrido[2,3-d]pyrimidin-7-one] yielded a melting point of 88 to 91 °C.
With Cc1ccc(Cc2cc3cnc(NCCCN4CCN(C)CC4)nc3n(C3CCCC3)c2=O)cc1 [Example 78, 8-Cyclopentyl-6-(4-methyl-benzyl)-2-[3-(4-methyl-piperazin-1-yl)-propylamino]-8H-pyrido[2,3-d]pyrimidin-7-one] the melting point was 123 to 124 °C.
Compound O=c1c(Cc2ccccc2)cc2cnc(NCCO)nc2n1C1CCCC1 [Example 42, 6-Benzyl-8-cyclopentyl-2-(2-hydroxy-ethylamino)-8H-pyrido[2,3-d]pyrimidin-7-one] has a melting point of 177 to 179 °C.
O=c1c(Cc2ccccc2)cc2cnc(Nc3ccccc3)nc2n1C1CCCC1 [Example 44, 6-Benzyl-8-cyclopentyl-2-phenylamino-8H-pyrido[2,3-d]pyrimidin-7-one] showed a melting point of 161 to 163 °C.
CCCN1CCC(Nc2ncc3cc(Cc4nccs4)c(=O)n(C4CCCC4)c3n2)CC1 [Example 86, 8-Cyclopentyl-2-(1-propyl-piperidin-4-ylamino)-6-thiazol-2-ylmethyl-8H-pyrido[2,3-d]pyrimidin-7-one] showed a melting point of 149 to 152 °C.

Test system: neointima formation
Conditions: in rats; cited from earlier work
In the case of COc1ccc(CNc2nc(N(CCO)CCO)nc3c2ncn3C(C)C)cc1 [CVT-313], the “inhibition of neointima formation” value is listed as “greater than 80%”.
